The values that follow come from US12522594B2, “2-heteroaryl-3-oxo-2,3-dihydropyridazine-4-carboxamides for the treatment of cancer” (Deutsches Krebsforschungszentrum, priority 2017, dated 2026).

The target in experiment [1] is T1, AHR (Homo sapiens, UniProt P35869).
T1 sequence (P35869 11-848): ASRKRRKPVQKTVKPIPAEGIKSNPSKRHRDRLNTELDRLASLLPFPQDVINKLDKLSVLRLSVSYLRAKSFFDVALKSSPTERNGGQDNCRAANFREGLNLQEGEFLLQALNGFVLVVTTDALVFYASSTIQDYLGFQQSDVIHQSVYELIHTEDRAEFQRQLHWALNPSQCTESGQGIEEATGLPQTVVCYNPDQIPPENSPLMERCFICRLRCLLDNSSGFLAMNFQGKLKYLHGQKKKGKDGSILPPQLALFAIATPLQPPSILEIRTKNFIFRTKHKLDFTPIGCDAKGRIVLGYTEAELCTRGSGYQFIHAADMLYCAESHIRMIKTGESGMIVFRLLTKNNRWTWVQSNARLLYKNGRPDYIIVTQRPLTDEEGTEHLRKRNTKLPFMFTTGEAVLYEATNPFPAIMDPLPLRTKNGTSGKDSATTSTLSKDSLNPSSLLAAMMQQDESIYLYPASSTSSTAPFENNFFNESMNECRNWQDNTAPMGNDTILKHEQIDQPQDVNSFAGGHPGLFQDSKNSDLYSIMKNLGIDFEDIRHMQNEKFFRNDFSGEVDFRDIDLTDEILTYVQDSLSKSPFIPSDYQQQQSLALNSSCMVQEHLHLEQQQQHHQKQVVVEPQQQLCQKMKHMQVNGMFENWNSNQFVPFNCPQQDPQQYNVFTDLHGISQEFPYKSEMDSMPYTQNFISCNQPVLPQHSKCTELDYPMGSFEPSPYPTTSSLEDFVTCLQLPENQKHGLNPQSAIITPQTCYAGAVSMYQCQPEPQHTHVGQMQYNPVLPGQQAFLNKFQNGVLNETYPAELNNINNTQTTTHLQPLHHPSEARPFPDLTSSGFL
The experiment in a line: In vitro assay 1: antagonism in human cell line (transactivation assay, U87 cells prestimulated with kynurenic acid, DRE firefly luciferase reporter). It counts as cell-based. Further details: host or cells: U87 glioblastoma cells, stably transfected with DRE firefly luciferase and renilla reporter constructs. The conditions noted are these: 150 uM kynurenic acid, 20 hours, read-out: Assay 1: AHR-luc Hum Antagonism IC50. Put shortly: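 Antagonism measured after kynurenic acid prestimulation in U87 cells that express AHR endogenously and stably harbor a firefly luciferase gene under DRE control plus a constitutive renilla construct. Positive and negative controls served for normalization.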

The target in experiment [2] is T1, AHR. The experiment in a line: In vitro assay 2: agonism in human cell line (transactivation assay, U87 cells, DRE firefly luciferase reporter). Details: host or cells: U87 glioblastoma cells, stably transfected with DRE firefly luciferase and renilla reporter constructs. The conditions noted are these: no kynurenic acid, 20 hours, read-out: Assay 2: AHR-luc Hum Agonism IC50. Format: cell-based. The method in brief:
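Agonist readout: DRE firefly luciferase, with constitutive renilla reporter, in stably transfected U87 cells expressing AHR endogenously. Normalization used positive control (300 uM kynurenic acid) and negative control.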

The term IC50 denotes the concentration at which inhibition is half-maximal.

On to `CC(C)(O)C(NC(=O)c1cc(-c2ccc(OC(F)(F)F)cc2)nn(-c2cccnc2)c1=O)C(F)(F)F` (single isomer, unassigned; enantiomer 2) [Example 137, 3-Oxo-2-(pyridin-3-yl)-N-[1,1,1-trifluoro-3-hydroxy-3-methylbutan-2-yl]-6-[4-(trifluoromethoxy)phenyl]-2,3-dihydropyridazine-4-carboxamide, Enantiomer 2], for which the IC50 was 4.23 nM at AHR [1] and above 20000 nM on AHR [2].

As to `O=C(NCC1(O)CC1)c1cc(-c2ccc(C(F)(F)F)cc2)nn(-c2cccnc2)c1=O` [Example 188, N-[(1-Hydroxycyclopropyl)methyl]-3-oxo-2-(pyridin-3-yl)-6-[4-(trifluoromethyl)phenyl]-2,3-dihydropyridazine-4-carboxamide], the IC50 at AHR [1] was 12.5 nM; on AHR [2], above 20000 nM.

Regarding `C[C@H](NC(=O)c1cc(-c2ccc(Cl)cc2)nn(-c2cnsc2)c1=O)C(C)(C)O` [Example 209, 6-(4-Chlorophenyl)-N-[(2S)-3-hydroxy-3-methylbutan-2-yl]-3-oxo-2-(1,2-thiazol-4-yl)-2,3-dihydropyridazine-4-carboxamide], the IC50 on AHR [1] is 1.24 nM; on AHR [2], above 20000 nM.

Regarding `O=C(NCC(O)C(F)(F)F)c1cc(-c2ccc(OC(F)(F)F)cc2)nn(-c2cccnc2)c1=O` (stereo not shown) [Example 146, 3-Oxo-2-(pyridin-3-yl)-N-[3,3,3-trifluoro-2-hydroxypropyl]-6-[4-(trifluoromethoxy)phenyl]-2,3-dihydropyridazine-4-carboxamide], the figures for the IC50 on AHR [1] and at AHR [2] were 10.3 nM and above 20000 nM, respectively.

As for `O=C(N[C@H]1COC[C@@H]1O)c1cc(-c2ccc(Cl)cc2)nn(-c2cncc(F)c2)c1=O` (relative stereo) [Example 154, 6-(4-Chlorophenyl)-2-(5-fluoropyridin-3-yl)-N-[(trans)-4-hydroxytetrahydrofuran-3-yl]-3-oxo-2,3-dihydropyridazine-4-carboxamide], the IC50 at AHR [1] is 36.8 nM; on AHR [2], above 20000 nM.

For `Cn1cc(-n2nc(-c3ccc(Cl)cc3)cc(C(=O)N[C@H]3CCC[C@@H]3O)c2=O)cn1` (relative stereo) [Example 51, 6-(4-Chlorophenyl)-N-[(trans)-2-hydroxycyclopentyl]-2-(1-methyl-1H-pyrazol-4-yl)-3-oxo-2,3-dihydropyridazine-4-carboxamide], the 50% inhibitory concentration (IC50) at AHR [1] was 9.54 nM; on AHR [2], above 20000 nM.

Regarding `O=C(NC(CO)C1CC1)c1cc(-c2ccc(Cl)cc2)nn(-c2cccnc2)c1=O` (single isomer, unassigned; (+)) [Example 91, (+)-6-(4-Chlorophenyl)-N-(1-cyclopropyl-2-hydroxyethyl)-3-oxo-2-(pyridin-3-yl)-2,3-dihydropyridazine-4-carboxamide], the IC50 at AHR [1] was 48.1 nM; at AHR [2], above 20000 nM.

As to `O=C(N[C@H]1CCCC(F)(F)[C@@H]1O)c1cc(-c2ccc(Cl)cc2)nn(-c2cccnc2)c1=O` (single isomer, unassigned; enantiomer 1) [Example 144, 6-(4-Chlorophenyl)-N-[(trans)-3,3-difluoro-2-hydroxycyclohexyl]-3-oxo-2-(pyridin-3-yl)-2,3-dihydropyridazine-4-carboxamide, Enantiomer 1], the IC50 on AHR [1] was 31.4 nM; at AHR [2], above 20000 nM.

For `C[C@@H](CO)NC(=O)c1cc(-c2ccc(CF)cc2)nn(-c2cccnc2)c1=O` [Example 285, 6-[4-(Fluoromethyl)phenyl]-N-[(2S)-1-hydroxypropan-2-yl]-3-oxo-2-(pyridin-3-yl)-2,3-dihydropyridazine-4-carboxamide], the half-inhibitory concentration (IC50) is 602 nM on AHR [1] and above 20000 nM on AHR [2].

Consider `O=C(N[C@H]1COC[C@@H]1O)c1cc(-c2ccc(Cl)cc2)nn(-c2cncc(F)c2)c1=O` (single isomer, unassigned; enantiomer 2) [Example 156, 6-(4-Chlorophenyl)-2-(5-fluoropyridin-3-yl)-N-[(trans)-4-hydroxytetrahydrofuran-3-yl]-3-oxo-2,3-dihydropyridazine-4-carboxamide, Enantiomer 2], for which the IC50 at AHR [1] was 25 nM; at AHR [2] it was above 20000 nM.

For the compound `COC(=O)[C@@H](CO)NC(=O)c1cc(-c2ccc(Cl)cc2)nn(-c2cnn(C)c2)c1=O` [Example 267, Methyl N-{[6-(4-chlorophenyl)-2-(1-methyl-1H-pyrazol-4-yl)-3-oxo-2,3-dihydropyridazine-4-yl]carbonyl}-D-serinate], the IC50 on AHR [1] was 56.9 nM; at AHR [2], above 20000 nM.

Turning to `Cn1cc(-n2nc(-c3ccc(OC(F)(F)F)cc3)cc(C(=O)N[C@@H]3COC[C@H]3O)c2=O)cn1` (single isomer, unassigned; enantiomer 2) [Example 65, N-[(trans)-4-Hydroxytetrahydrofuran-3-yl]-2-(1-methyl-1H-pyrazol-4-yl)-3-oxo-6-[4-(trifluoromethoxy)phenyl]-2,3-dihydropyridazine-4-carboxamide, Enantiomer 2], the IC50 at AHR [1] was 25.5 nM; at AHR [2] it was above 20000 nM.

As for `C[C@@H](CO)NC(=O)c1cc(-c2ccc(C(F)F)cc2)nn(-c2cccnc2)c1=O` [Example 151, 6-[4-(Difluoromethyl)phenyl]-N-[(2S)-1-hydroxypropan-2-yl]-3-oxo-2-(pyridin-3-yl)-2,3-dihydropyridazine-4-carboxamide], the IC50 at AHR [1] is 21.1 nM; at AHR [2], above 20000 nM.

In the case of `Cn1cc(-n2nc(-c3ccc(C(F)F)cc3)cc(C(=O)N[C@H]3CCC[C@@H]3O)c2=O)cn1` (relative stereo) [Example 52, 6-[4-(Difluoromethyl)phenyl]-N-[(trans)-2-hydroxycyclopentyl]-2-(1-methyl-1H-pyrazol-4-yl)-3-oxo-2,3-dihydropyridazine-4-carboxamide], the figures for the IC50 at AHR [1] and on AHR [2] were 11.5 nM and above 20000 nM, respectively.

On to `O=C(NC[C@@H](O)CO)c1cc(-c2ccc(Cl)cc2)nn(-c2cncc(F)c2)c1=O` [Example 98, 6-(4-Chlorophenyl)-N-[(2R)-2,3-dihydroxypropyl]-2-(5-fluoropyridin-3-yl)-3-oxo-2,3-dihydropyridazine-4-carboxamide], for which the concentration for half-maximal inhibition (IC50) at AHR [1] was 251 nM; on AHR [2], above 20000 nM.

For `Cc1cc(-n2nc(-c3ccc(Cl)cc3)cc(C(=O)N[C@@H](C)CO)c2=O)cs1` [Example 242, 6-(4-Chlorophenyl)-N-[(2S)-1-hydroxypropan-2-yl]-2-(5-methyl-3-thienyl)-3-oxo-2,3-dihydropyridazine-4-carboxamide], the IC50 on AHR [1] is 11.1 nM; at AHR [2], above 20000 nM.

As to `O=C(NC(CO)C1CC1)c1cc(-c2ccc(Cl)cc2)nn(-c2cncc(F)c2)c1=O` (racemic) [Example 97, 6-(4-Chlorophenyl)-N-[(1RS)-1-cyclopropyl-2-hydroxyethyl]-2-(5-fluoropyridin-3-yl)-3-oxo-2,3-dihydropyridazine-4-carboxamide], the IC50 is 7.06 nM on AHR [1] and above 20000 nM on AHR [2].

With `Cc1cc(-n2nc(-c3ccc(Cl)cc3)cc(C(=O)NC[C@H](O)C(F)(F)F)c2=O)cs1` [Example 225, 6-(4-Chlorophenyl)-2-(5-methyl-3-thienyl)-3-oxo-N-[(2S)-3,3,3-trifluoro-2-hydroxypropyl]-2,3-dihydropyridazine-4-carboxamide], the IC50 at AHR [1] was 5.04 nM; at AHR [2], above 20000 nM.

With `O=C(NC(CO)C1CC1)c1cc(-c2ccc(C(F)(F)F)cc2)nn(-c2cccnc2)c1=O` (racemic) [Example 109, N-[(1RS)-1-Cyclopropyl-2-hydroxyethyl]-3-oxo-2-(pyridin-3-yl)-6-[4-(trifluoromethyl)phenyl]-2,3-dihydropyridazine-4-carboxamide], the IC50 at AHR [1] is 1.63 nM; on AHR [2] it was above 20000 nM.

For `C[C@@H](CO)NC(=O)c1cc(-c2ccc(C(F)(F)F)cc2)nn(-c2cn[nH]c2)c1=O` [Example 244, N-[(2S)-1-Hydroxypropan-2-yl]-3-oxo-2-(1H-pyrazol-4-yl)-6-[4-(trifluoromethyl)phenyl]-2,3-dihydropyridazine-4-carboxamide], the 50% inhibitory concentration (IC50) was 11.9 nM on AHR [1] and above 20000 nM on AHR [2].
